Source: patent publication US10472341B2, “Bicyclic tetrahydrothiazepine derivatives useful for the treatment of neoplastic and/or infectious diseases” (APEIRON BIOLOGICS AG, priority 2015, dated 2019)
Like-named read-outs stand apart in the source and are kept apart here.

Experiments:
[1] = test system: CD4 T cells, CD8 T cells and NK cells of B16-F10-OVA tumor bearing mice; experiment: Immune modulation of B16-F10-OVA tumor bearing mice: activation markers in tumor draining lymph nodes (flow cytometry); type: in vivo, mouse; conditions: day 15
Experimental: (§1) • Single cell suspension of splenocytes was prepared from the spleen by rinsing cells through a sterile 70 μm filter with PBS • Cells were collected by centrifugation in an 15 ml tube, the cell pellet was resuspended in 1 ml of Erylyse buffer and incubated at room temperature for 5 minutes, tubes were filled up with PBS and cells were washed twice • Cells were counted and resuspended in the desired buffer volume for MACS-enrichment or flow cytometric analysis Isolation of CD4 T Cells from OT-II Transgenic Mice • Splenocytes were resuspended in MACS buffer ([…] MACS-buffer/10^7 cells) • CD4 T cells were isolated using the CD4 T cell isolation kit (Miltenyi) with LS-columns following manufacturer's recommendations CFSE-Labeling of T Cells • Cells were resuspended in PBS with 0.1% BSA at 1×10^7 cells/ml and CFSE-solution was added to final concentration of 2.5 μM CFSE • Incubated for 10 min at 37° C., swung each 2 min • Same volume of FCS added and incubated for 5 min at room temperature • Cells were washed twice with RMPI-10% FCS medium • Cells were counted and resuspended in PBS or medium at desired concentration OT-II Transfer • Day 0: OT-II cells were transferred in PBS (3*10^6. Cells in 100 μl PBS) by retro-orbital injection • Day 1: WT mice got OVA vaccinated (subcut. flank, 10 μg LPS, 2 μg OVA per animal) • 2 & 4 h later compounds were administrated; for oral dosing compound was used as suspension (0.5% methylcellulose in water), for i.v. dosing compound was solubilized in DMSO and diluted with PBS • Day 2: compounds were administrated twice in the morning (with 2 h time interval) • Day 3: Mice were sacrificed & splenocytes were isolated • T cell proliferation & phenotype was determined by flow cytometry • Flow cytometry-Staining (all Abs purchased from eBioscience and used as recommended by the manufacturer): B220-eF450, CD4-PE, CD25PerCPCy5.5, CD69-PC7, TCRVa2-APC, CD8-AF700, CD3-eF780; CFSE; 7-AAD • Acquisition on Beckman-Coulter Gallios, Analysis using Kaluza Software OT-I Transfer to Mice with B16-F10-OVA Tumors • Day 0: 100000 B16-F10-OVA tumor cells were inoculated subcutaneously at the flank of WT-mice • Day 7: OT-I cells were transferred in PBS (3*10^6. […]

B16-F10-OVA tumors = experiment: Immune modulation of B16-F10-OVA tumor bearing mice: tumor infiltration by immune cells (quantitative RT-PCR); type: in vivo, mouse; conditions: tumor mRNA
Experimental: as §1

[2] = test system: aCD3/aCD28-stimulated human PBMCs; experiment: Cytokine production in aCD3/aCD28 stimulated human PBMCs; type: cell-based; conditions: PBMC, 18 h
In short: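 Ficoll-isolated human PBMCs at 1e6 cells/mL in X-Vivo15, stimulated with soluble anti-CD3/CD28 (OKT3 and 28.2, 1 μg/mL each) plus compound for 18 h at 37° C. Supernatant cytokines quantified by MSD or HTRF.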

non-stimulated PBMCs = experiment: Non-stimulated PBMCs: cytokine secretion and signs of T-cell activation; type: cell-based, human
Description: This is an important finding for compounds that shall selectively act on T cells which have been activated by presence of antigen from pathogens or tumors, but shall not lead to an unwanted general activation of all T cells of a patient.

OT-II cells = experiment: OT-II transfer model, oral administration: antigen-specific T cell proliferation and CD69; type: in vivo, mouse; conditions: LPS & OVA; 10 mg/kg dosed orally
Experimental: as §1

With `N[C@H]1CS(=O)(=O)c2cc(F)c(C(=O)NC3CC3(F)F)cc2N(Cc2ccc(Cl)cc2)C1=O` (stereo partly shown) [Compound Ex. 1] the “Average CD25+ cells” value ([1]; CD4 T cells, 10 mg/kg orally) was 15.63 % gated, the “Average CD69+ cells” value ([1]; CD4 T cells, 10 mg/kg orally) was 13.34 % gated and the “Average CD107a+ cells” value ([1]; CD4 T cells, 10 mg/kg orally) was 5.03 % gated. The “Average PD1+ cells” value ([1]; CD4 T cells, 10 mg/kg orally) was 10.73 % gated, the “Average CD25+ cells” value ([1]; CD4 T cells, 30 mg/kg orally) was 15.91 % gated and the “Average CD69+ cells” value ([1]; CD4 T cells, 30 mg/kg orally) was 14.25 % gated. For the same compound, the “Average CD107a+ cells” value ([1]; CD4 T cells, 30 mg/kg orally) was 5.43 % gated, the “Average PD1+ cells” value ([1]; CD4 T cells, 30 mg/kg orally) was 10.36 % gated and the “Average CD25+ cells” value ([1]; CD8 T cells, 10 mg/kg orally) was 1.95 % gated. For the same compound, the “Average CD69+ cells” value ([1]; CD8 T cells, 10 mg/kg orally) was 5.25 % gated, the “Average CD107a+ cells” value ([1]; CD8 T cells, 10 mg/kg orally) was 2.00 % gated and the “Average PD1+ cells” value ([1]; CD8 T cells, 10 mg/kg orally) was 3.12 % gated. For the same compound, the “Average CD25+ cells” value ([1]; CD8 T cells, 30 mg/kg orally) was 2.88 % gated, the “Average CD69+ cells” value ([1]; CD8 T cells, 30 mg/kg orally) was 5.91 % gated and the “Average CD107a+ cells” value ([1]; CD8 T cells, 30 mg/kg orally) was 4.24 % gated. The “Average PD1+ cells” value ([1]; CD8 T cells, 30 mg/kg orally) was 6.71 % gated, the “Average CD69+ cells” value ([1]; NK cells, 10 mg/kg orally) was 34.43 % gated and the “Average CD107a+ cells” value ([1]; NK cells, 10 mg/kg orally) was 12.85 % gated. The “Average PD1+ cells” value ([1]; NK cells, 10 mg/kg orally) was 19.91 % gated, the “Average CD69+ cells” value ([1]; NK cells, 30 mg/kg orally) was 32.55 % gated and the “Average CD107a+ cells” value ([1]; NK cells, 30 mg/kg orally) was 10.98 % gated. The “Average PD1+ cells” value ([1]; NK cells, 30 mg/kg orally) was 13.61 % gated, the “Average CD4 expression” value (B16-F10-OVA tumors; 10 mg/kg orally) was 7.07 EF1a * 10^4 and the “Average CD8 expression” value (B16-F10-OVA tumors; 10 mg/kg orally) was 6.28 EF1a * 10^4. For the same compound, the “Average IFN-g expression” value (B16-F10-OVA tumors; 10 mg/kg orally) was 0.75 EF1a * 10^4, the “Average IL-2 expression” value (B16-F10-OVA tumors; 10 mg/kg orally) was 0.043 EF1a * 10^4 and the “Average IL-12 expression” value (B16-F10-OVA tumors; 10 mg/kg orally) was 0.074 EF1a * 10^4. For the same compound, the “Average IL-23 expression” value (B16-F10-OVA tumors; 10 mg/kg orally) was 0.480 EF1a * 10^4, the “Average Ratio Eomes/Foxp3” value (B16-F10-OVA tumors; 10 mg/kg orally) was 0.66 and the “Average Ratio Rorgc/Foxp3” value (B16-F10-OVA tumors; 10 mg/kg orally) was 5.38. For the same compound, the “Average Ratio T-bet/Foxp3” value (B16-F10-OVA tumors; 10 mg/kg orally) was 8.35, the “Average TNF-a expression” value (B16-F10-OVA tumors; 10 mg/kg orally) was 9.96 EF1a * 10^4 and the “Average CD4 expression” value (B16-F10-OVA tumors; 30 mg/kg orally) was 9.65 EF1a * 10^4. For the same compound, the “Average CD8 expression” value (B16-F10-OVA tumors; 30 mg/kg orally) was 10.72 EF1a * 10^4, the “Average IFN-g expression” value (B16-F10-OVA tumors; 30 mg/kg orally) was 1.23 EF1a * 10^4 and the “Average IL-2 expression” value (B16-F10-OVA tumors; 30 mg/kg orally) was 0.085 EF1a * 10^4. For the same compound, the “Average IL-12 expression” value (B16-F10-OVA tumors; 30 mg/kg orally) was 0.120 EF1a * 10^4, the “Average IL-23 expression” value (B16-F10-OVA tumors; 30 mg/kg orally) was 0.611 EF1a * 10^4 and the “Average Ratio Eomes/Foxp3” value (B16-F10-OVA tumors; 30 mg/kg orally) was 0.64. For the same compound, the “Average Ratio Rorgc/Foxp3” value (B16-F10-OVA tumors; 30 mg/kg orally) was 6.17, the “Average Ratio T-bet/Foxp3” value (B16-F10-OVA tumors; 30 mg/kg orally) was 9.59 and the “Average TNF-a expression” value (B16-F10-OVA tumors; 30 mg/kg orally) was 14.97 EF1a * 10^4.

For `CC(=O)NCCCCCOc1ccc(CNC(=O)c2ccc3c(c2)N(Cc2ccc(Cl)cc2)C(=O)[C@@H](N)CS3(=O)=O)cc1.Cl` [Example 78, (3R)-3-amino-5-[(4-chlorophenyl)methyl]-N-({4-[(5-acetamidopentyl)oxy]phenyl}-methyl)-1,1,4-trioxo-2,3,4,5-tetrahydro-1λ^6,5-benzothiazepine-7-carboxamide hydrochloride], the EC50 ([2]; enhancement of IFN-γ production, read-out: Activity Class IFN-γ) was < 1580 nM, the EC50 ([2]; enhancement of IL-2 production, read-out: Activity Class IL-2) was < 1580 nM and the “cytokine secretion or other signs of T-cell activation” value (non-stimulated PBMCs) was “did not enhance cytokine secretion or other signs of T-cell activation”.

With `N[C@H]1CS(=O)(=O)c2cc(F)c(C(=O)NC3CC3(F)F)cc2N(Cc2ccc(Cl)cc2)C1=O` (stereo partly shown) [compound ex. 1] the “CD69+ cells, B cells of recipient animal” value (OT-II cells) was 2.10 % gated, the “CD69+ cells, CD8 T cells of recipient animal” value (OT-II cells) was 3.48 % gated and the “CD69+ cells, WT CD4 T cells of recipient animal” value (OT-II cells) was 7.00 % gated. The “CD69+ cells, transferred OT-II cells” value (OT-II cells) was 46.92 % gated.
